The results in this text go back to paper PMC3171403, “Two Functionally Distinctive Phosphopantetheinyl Transferases from Amoeba Dictyostelium discoideum” (PLoS ONE, 2011).

Common to all, as to type: biochemical
The target in assay [1] is T1, DiAcpS (Dictyostelium discoideum, UniProt Q552R4).
T1 construct: gene DDB_G0275923; full gene (2 exons) in pET28a, N-terminal His6 tag, E. coli BL21(DE3); expected 20 kDa, runs at about 27 kDa
Put plainly: gel-based radiolabel transfer to apo-ACP, phosphorimager. The following applies: labelled compound; 5-45 uM; 20 uM enzyme; 54 uM mycobacterial ACP Rv1344; 12.5 mM MgCl2, Tris-Cl pH 8.0, 30 C (gel-binding assay); only kcat/Km in text.

Assay [2] has as its target T2, DiSfp (Dictyostelium discoideum, UniProt Q54MI2).
T2 construct: gene DDB_G0285927; full gene (2 exons) in pET28a, N-terminal His6 tag, E. coli BL21(DE3); 34 kDa
The description is as above. To be noted: labelled compound; 5-45 uM; 20 uM enzyme; 54 uM mycobacterial PKS2; 12.5 mM MgCl2, Tris-Cl pH 8.0, 30 C (gel-binding assay); only kcat/Km in text.

The target of assay [3] is T1, DiAcpS. Description: HPLC and MALDI-TOF of holo-ACP formation. To be noted: 250 uM CoA; 54 uM apo-ACP (Rv1344 or Dictyostelium stand-alone ACP); 12.5 mM MgCl2, Tris-Cl pH 8.0, 37 C.
Assay [4] has as its target T2, DiSfp. Description: HPLC and MALDI-TOF of holo-ACP formation. The following applies: 250 uM CoA; 54 uM apo DiPKS16 ACP; 12.5 mM MgCl2, Tris-Cl pH 8.0, 37 C.

T2 sequence (Q54MI2 entry or part of it): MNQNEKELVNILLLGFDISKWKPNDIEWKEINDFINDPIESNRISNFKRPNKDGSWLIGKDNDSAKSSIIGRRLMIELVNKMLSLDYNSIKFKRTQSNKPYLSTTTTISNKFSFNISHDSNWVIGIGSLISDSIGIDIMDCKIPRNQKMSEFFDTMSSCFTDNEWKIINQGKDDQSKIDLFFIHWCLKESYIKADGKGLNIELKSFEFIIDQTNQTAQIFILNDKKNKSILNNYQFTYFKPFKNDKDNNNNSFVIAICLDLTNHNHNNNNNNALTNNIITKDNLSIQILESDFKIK
T1 sequence (Q552R4 entry or part of it): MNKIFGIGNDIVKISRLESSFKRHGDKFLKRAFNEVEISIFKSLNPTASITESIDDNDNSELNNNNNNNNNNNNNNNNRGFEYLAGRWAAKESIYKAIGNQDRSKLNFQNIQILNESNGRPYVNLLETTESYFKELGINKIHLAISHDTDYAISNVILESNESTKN

Take `CC(=O)SCCNC(=O)CCNC(=O)[C@H](O)C(C)(C)COP(=O)(O)OP(=O)(O)OC[C@H]1O[C@@H](n2cnc3c(N)ncnc32)[C@H](O)[C@@H]1OP(=O)(O)O` [acetyl CoA]: the “gel-based radiolabel transfer to apo-ACP, phosphorimager” value in assay [1] was “Kinetics of DiAcpS with the ACP was determined by varying the concentrations of acetyl CoA”; in assay [2], “phosphopantetheinylation only by DiSfp and no activity could be observed for DiAcpS”.

With `CC(C)(COP(=O)(O)OP(=O)(O)OC[C@H]1O[C@@H](n2cnc3c(N)ncnc32)[C@H](O)[C@@H]1OP(=O)(O)O)[C@@H](O)C(=O)NCCC(=O)NCCS` [coenzyme A], the entries for the “HPLC and MALDI-TOF of holo-ACP formation” value in assay [3] and in assay [4] were “DiAcpS mediated conversion of apo- to holo-ACP resulted in shift in the retention time” and “DiSfp resulted in a shift of ACP retention time on reverse-phase column”, respectively.
